Measured values as given in publication PMC7938888, “Antidepressant drugs act by directly binding to TRKB neurotrophin receptors” (Cell, 2021).
Entries after “also recorded” stand apart in the source; their conditions may differ.

Tests used:
TRKB = TRKB (Mus musculus, UniProt P15209); test: Cell-free ligand binding assay on immobilised TRKB from HEK293T lysates; set-up: wild-type GFP-tagged full length TRKB or the GFP-tagged Y433F TRKB mutant; host or cells: HEK293T; conditions: for displacement of biotinylated FLX from TRKB: biotinylated FLX 1 μM
Sequence of TRKB (P15209 32-821): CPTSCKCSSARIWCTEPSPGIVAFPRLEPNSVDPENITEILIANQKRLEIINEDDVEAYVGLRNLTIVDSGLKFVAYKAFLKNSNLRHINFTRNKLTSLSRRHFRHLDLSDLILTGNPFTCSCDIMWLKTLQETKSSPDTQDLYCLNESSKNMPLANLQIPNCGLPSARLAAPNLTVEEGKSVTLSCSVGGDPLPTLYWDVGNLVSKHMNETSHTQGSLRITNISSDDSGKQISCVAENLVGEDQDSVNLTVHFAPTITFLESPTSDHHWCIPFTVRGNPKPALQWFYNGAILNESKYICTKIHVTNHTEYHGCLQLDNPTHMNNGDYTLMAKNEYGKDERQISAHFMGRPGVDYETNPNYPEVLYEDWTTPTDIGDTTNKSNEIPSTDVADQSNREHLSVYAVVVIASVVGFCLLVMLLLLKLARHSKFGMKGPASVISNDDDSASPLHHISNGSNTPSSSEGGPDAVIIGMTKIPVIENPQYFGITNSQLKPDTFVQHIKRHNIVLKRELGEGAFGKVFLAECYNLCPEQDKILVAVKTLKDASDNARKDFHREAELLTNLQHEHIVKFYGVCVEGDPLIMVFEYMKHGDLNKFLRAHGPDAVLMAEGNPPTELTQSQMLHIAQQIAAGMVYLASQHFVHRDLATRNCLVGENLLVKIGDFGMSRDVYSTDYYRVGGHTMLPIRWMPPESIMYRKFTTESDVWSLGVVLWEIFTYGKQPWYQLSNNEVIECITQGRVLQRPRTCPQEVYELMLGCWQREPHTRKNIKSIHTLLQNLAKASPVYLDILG
Procedure: (§1) The cell-free assays (binding assays) were performed in white 96-well plates, based on the protocol used for western-blotting or ELISA ([Baeza-Raja et al., 2016]; [Das et al., 2015]). The plates were precoated with anti-GFP, anti-FLAG, anti-TRK or anti-TRKB antibody (1:1000) in carbonate buffer (pH 9.8), ON at 4°C. Following blocking with 3% BSA in PBS buffer (2 h at RT), 120 ug of total protein from each sample (of lysates from HEK293T cells transfected to overexpress GFP-TRKB.wt or GFP-TRKB.Y433F) were added and incubated overnight at 4°C under agitation. […] The luminescence was determined via HRP-conjugated streptavidin (1:10000, 1h, RT) activity reaction with ECL by a plate reader. The luminescence signal from blank wells (containing all the reagents but the sample lystates, substituted by the blocking buffer) was used as background. The specific signal was then calculated by subtracting the values of blank wells from the values of the samples with matched concentration of the biotinylated ligand. For Figure 2E, the precipitated TRKB.wt or Y433F was incubated with tritiated imipramine (0-30μM) and the radioactive emission of the ligand was determined by scintillation (OptiPhase Supermix cocktail: #1200-439; MicroBeta2, Perkin-Elmer). The scintillation signal from blank wells was used as background, and the specific signal was then calculated by subtracting the values of blank wells from the values of the samples with matched concentration of the radioactive ligand.

[1] = target: GFP-tagged TRKB mutated at Y433 (GFP-TRKB.Y433F) (UniProt P15209); test: ELISA; cell-free ligand binding assay in white 96-well plates: GFP-TRKB from 120 ug HEK293T lysate captured on antibody-coated wells (anti-GFP or anti-TRKB), washed, ligand added; read-out by HRP-streptavidin and ECL as told for biotinylated ligands; the conditions for BDNF are not told
Sequence of GFP-tagged TRKB mutated at Y433 (GFP-TRKB.Y433F) (P15209 32-821 Y433F): as the sequence (P15209 32-821) above, with Y402F counted along it

[2] = target: GFP-tagged TRKB wild type (GFP-TRKB.wt), neurotrophic tyrosine kinase receptor 2 (UniProt P15209); test: as above
Sequence of GFP-tagged TRKB wild type (GFP-TRKB.wt), neurotrophic tyrosine kinase receptor 2 (P15209 32-821): as the sequence (P15209 32-821) above

[3] = tested on: GluR1 subunit of AMPA receptors; test: Surface GluR1 ELISA in rat cortical cells; type: cell-based; conditions: TRKB inhibitors
Procedure: Briefly, the MG87.TRKB cells or primary cortical cells from rat or mouse embryos, cultivated in clear bottom 96-well plates (ViewPlate 96, Perkin Elmer), were washed with ice-cold PBS and fixed with 100μl of 4% PFA per well. […] Following washing, the samples were incubated with HRP-conjugated anti-goat or anti-rabbit IgG (1:5000 in blocking buffer) for 1h at RT. The cells were washed 4x with 200μl of PBS for 10 min each. Finally, the chemiluminescent signal generated by reaction with ECL was analyzed in a plate reader.

TRKB:PLC-γ1 interaction [4] = test: TRKB:PLC-γ1 interaction ELISA in cortical cells; type: cell-based, rat
Procedure: (§2) The TRKB:pY (phosphorylated TRKB), TRKB:PLC-γ1, PLC-γ1:pTRKB.Y816 interactions and were determined by ELISA, based on the general method described in literature ([Antila et al., 2014]; [Fred et al., 2019]), with minor adjustments. Briefly, white 96-well plates (OptiPlate 96F-HB, Perkin Elmer) were coated with capturing anti-TRKB or PLC-γ1 antibody (1:1000) in carbonate buffer (pH = 9.8) overnight (ON) at 4°C. Following a blocking step with 2%BSA in TBS-T (2 h, RT), samples were incubated ON at 4°C. The incubation with antibody against pTRKB.Y816, PLC-γ1 or pY (1:2000, ON, 4°C) was followed by HRP-conjugated anti-Rb IgG (1:5000, 2h, RT) or HRP-conjugated streptavidin (1:10000, 2h, RT). Finally, the chemiluminescent signal generated by the reaction with ECL was analyzed in a plate reader (Varioskan Flash, Thermo Scientific).

TRKB.Y433F = target: T1, TRKB.Y433F (Mus musculus, UniProt P15209, Y433F); test: Cell-free ligand binding assay, TRKB.Y433F mutant; conditions: tritiated imipramine, biotinylated R,R-HNK
T1 construct: wild-type GFP-tagged full length TRKB or the GFP-tagged Y433F TRKB mutant; host or cells: HEK293T
T1 sequence (P15209 32-821 Y433F): as the sequence (P15209 32-821) above, with Y402F counted along it
Procedure: as §1

TRKB:PLC-γ1 interaction [5] = test: TRKB:PLC-γ1 interaction ELISA in MG87 cells expressing TRKB; type: cell-based, mouse; conditions: bCDX 2 mM/30 min pre-treatment
Procedure: The cell line NIH 3T3 (mouse fibroblasts) stably transfected to express TRKB or TRKA (MG87.TRKB or MG87.TRKA, respectively) were used for in vitro assays ([Antila et al., 2014]), N2A and HEK293T cells were used to overexpress GFP-tagged TRKB for binding assays. The cells were maintained at 5% CO2, 37°C in Dulbecco’s Modified Eagle’s Medium (DMEM, containing 10% fetal calf serum, 1% penicillin/streptomycin, 1% L-glutamine, and, in the case of MG87.TRKB cells, with […] of G418). The cell lines used in the present study were not authenticated or genotyped for sex.
as §2, with “The incubation with antibody against pTRKB.Y816, PLC-γ1 or pY (1:2000, ON, 4°C) was followed by HRP-conjugated anti-Rb IgG (1:5000, 2h, RT) or HRP-conjugated streptavidin (1:10000, 2h, RT).” left out

surface TRKB = test: Surface TRKB ELISA in primary cortical neurons; type: cell-based, rat
Procedure: The surface levels of TRKB were also determined by ELISA ([Zheng et al., 2008]). Briefly, the MG87.TRKB cells or primary cortical cells from rat or mouse embryos, cultivated in clear bottom 96-well plates (ViewPlate 96, Perkin Elmer), were washed with ice-cold PBS and fixed with 100μl of 4% PFA per well. After washing with PBS and blocking with PBS containing 5% nonfat dry milk and 5% BSA, the samples were incubated with primary anti-TRKB antibody (R&D Systems, #AF1494, 1:1000 in blocking buffer) or anti-GluR1 subunit of AMPA receptors (CST, #8850, 1:2000 in blocking buffer) ON at 4°C. Following washing, the samples were incubated with HRP-conjugated anti-goat or anti-rabbit IgG (1:5000 in blocking buffer) for 1h at RT. The cells were washed 4x with 200μl of PBS for 10 min each. Finally, the chemiluminescent signal generated by reaction with ECL was analyzed in a plate reader.

[6] = tested on: TRKB autophosphorylation (TRKB:pY); test: TRKB:pY ELISA in cultured cortical cells; type: cell-based, rat; conditions: for rescue of BDNF-induced pTRKB response under high CHOL: cholesterol 50 μM, drug 10 μM 15 min, BDNF 10 ng/ml 15 min
Procedure: as §2

Compound: CN[C@]1(c2ccccc2Cl)CCCCC1=O [esketamine, S-ketamine]
- Ki (TRKB): 2860 nM

Compound: N[C@]1(c2ccccc2Cl)CCC[C@H](O)C1=O [S,S-HNK, 2S,6S-HNK]
- displacement of biotinylated FLX from TRKB (TRKB): weak, if any, displacement
- displacement of bound R,R-HNK from TRKB (TRKB; biotinylated R,R-HNK 1 μM): failed to displace

Compound: brain-derived neurotrophic factor (BDNF), biotinylated rh-BDNF (ligand)
- Kd [1]: 0.0029 nM
- Kd [2]: 0.0031 nM

Compound: O=C(Nc1ccccc1C(=O)NC1CCCCNC1=O)c1cc2ccccc2s1 (stereo not drawn) [ANA12]
- effect on FLX- and R,R-HNK-induced increase in surface GluR1 [3]: prevented

Compound: CN(C)CCCN1c2ccccc2CCc2ccccc21 [imipramine]
- TRKB interaction with PLC-γ1 (TRKB:PLC-γ1 interaction [4]; rat cortical cells): increased TRKB interaction with PLC-γ1
- affinity to TRKB.Y433F compared with wild-type TRKB (TRKB.Y433F): much lower than to the wild-type TRKB
- Ki (TRKB): 1030 nM

Compound: CC(C)NCC(O)c1ccc(O)c(O)c1 (stereo not drawn) [isoproterenol]
- displacement of biotinylated FLX from TRKB (TRKB): weak, if any, displacement

Compound: OC[C@H]1O[C@@H]2O[C@H]3[C@H](O)[C@@H](O)[C@@H](O[C@H]4[C@H](O)[C@@H](O)[C@@H](O[C@H]5[C@H](O)[C@@H](O)[C@@H](O[C@H]6[C@H](O)[C@@H](O)[C@@H](O[C@H]7[C@H](O)[C@@H](O)[C@@H](O[C@H]8[C@H](O)[C@@H](O)[C@@H](O[C@H]1[C@H](O)[C@H]2O)O[C@@H]8CO)O[C@@H]7CO)O[C@@H]6CO)O[C@@H]5CO)O[C@@H]4CO)O[C@@H]3CO [βCDX, beta-cyclodextrin]
- blockade of CHOL effect on TRKB:PLC-γ1 interaction (TRKB:PLC-γ1 interaction [5]): blocked
- effect on BDNF-induced increase in TRKB-PLC-γ1 interaction (TRKB:PLC-γ1 interaction [4]; bCDX 2 mM, 30 min): prevents
- effect on antidepressant-induced TRKB:PLC-γ1 interaction (TRKB:PLC-γ1 interaction [4]; bCDX 2 mM/30 min pretreatment, FLX, imipramine, KET, R,R-HNK): blocked
- effect on fluoxetine-induced increase in TRKB surface exposure (surface TRKB): blocked
- effect on block of BDNF-induced pTRKB by high cholesterol ([6]; bCDX 30 min, cholesterol 100 μM/15 min, BDNF 10 ng/ml/15 min): reverses the block

Compound: O=c1[nH]c2ccccc2n1C1CCN(CCCC(c2ccc(F)cc2)c2ccc(F)cc2)CC1 [pimozide]
- rescue of BDNF-induced pTRKB response under high CHOL [6]: failed to rescue

Compound: COC(=O)[C@@]1(O)C[C@H]2O[C@]1(C)n1c3ccccc3c3c4c(c5c6ccccc6n2c5c31)C(=O)NC4 [k252a]
- effect on FLX- and R,R-HNK-induced increase in surface GluR1 [3]: prevented

Compound: CN(C)CCCN1c2ccccc2Sc2ccc(Cl)cc21 [chlorpromazine]
- rescue of BDNF-induced pTRKB response under high CHOL [6]: failed to rescue
- displacement of biotinylated FLX from TRKB (TRKB): weak, if any, displacement; also recorded: failed to displace

Compound: OCCN1CCN(CCC=C2c3ccccc3Sc3ccc(C(F)(F)F)cc32)CC1 [flupenthixol]
- rescue of BDNF-induced pTRKB response under high CHOL [6]: failed to rescue

Compound: O=C(NCCN1CCOCC1)c1ccc(Cl)cc1 [moclobemide]
- Ki (TRKB): 1510 nM

Compound: CN(C)CCOC(c1ccccc1)c1ccccc1 [diphenhydramine]
- displacement of biotinylated FLX from TRKB (TRKB): weak, if any, displacement

Compound: COc1ccc(C(CN(C)C)C2(O)CCCCC2)cc1 (stereo not drawn) [venlafaxine]
- Ki (TRKB): 2080 nM
- displacement of biotinylated FLX from TRKB (TRKB): readily displaced
